The values that follow come from US20110233810A1, “ANTIMICROBIAL PLASTIC COMPOSITIONS AND METHODS FOR PREPARING SAME” (W. M. Barr & Company, priority 2010, published 2011).

One data set has as its system Staphylococcus aureus. The data set is described as follows: Zone of Inhibition testing AATCC-147 (modified), pellets in agar. Type of data set: cell-based. The conditions noted are these: text summary of Table VIII. Here is the method:
A set of AETs run measured Zone of Inhibition, ZOI (AATCC-147) and pellets from runs 1 to 5 were used. Pellets were placed in an agar growth medium that had been streaked with parallel lines of Staphylococcus aureus and incubated for 24 hours at 37° C. The final plates were photographed and measured for length of ZOI in mm.

The next data set concerns Rat. The conditions noted are these: cited from earlier work.
The subject of the next data set is Rabbit. The conditions noted are these: cited from earlier work.
For data set [1] the following is noted: heavy gauge vinyl pool liner and film of vinyl baby pants; cited from earlier work.
For data set [2] the following is noted: monomeric form; cited from earlier work.

Regarding `Oc1cc(Cl)ccc1Oc1ccc(Cl)cc1Cl` [TRICLOSAN, 2,4,4′-trichloro-2′-hydroxy diphenol ether], in the data set on Staphylococcus aureus, the “ZOI (in words)” value is “significant ZOI”. `c1ccc2c(c1)Oc1ccccc1[As]2O[As]1c2ccccc2Oc2ccccc21` [OBPA, 10,10′-oxybisphenoxarsine]: the “Oral LD50” value in the data set with Rat is recorded as 37 mg/kg. Besides, the “Dermal LD50” value in the data set with Rabbit is 121 mg/kg. In addition, the Leaching from plastics entry in data set [1] was “leaches very slowly”. Take `CCCCCCCCCCCCCCCCCC[N+](C)(C)CCC[Si](OC)(OC)OC.[Cl-]` [Ref #1, 3-(trimethoxysilyl) propyl-N-octadecyl-N,N-dimethyl ammonium chloride]: the Vapor pressure in data set [2] was 5.8 × 10^−14 mmHg.
